Legend:
[1] = tested on: LNCaP cells stably transfected with pPSA (e/p)-DBD/F; test: Androgen-regulated PARP-DBD expression (Western blot, RT-PCR, in situ immunofluorescence) in stably transfected LNCaP cells; type: cell-based, human; settings: R1881 0-10 nM, 24 hours, charcoal-stripped serum for seven days
Experimental: The androgen responsive prostate carcinoma LNCaP and androgen independent PC-3 cell lines were obtained from American Type Culture Collection (Manassas, Va.) and maintained by serial passage in DMEM supplemented with 10% fetal bovine serum, 100 units/ml penicillin, and 100 μg/ml streptomycin at 37° C. in an atmosphere of 5% CO2 in air. Cells subjected to androgen stimulation tests were maintained in media with 10% charcoal-stripped fetal bovine serum for seven days before the addition of synthetic androgen R1881 (Perkin Elmer Life Science). […]
RNA was isolated from cells using TRIzol Reagent (Gibco) according to manufacturer's protocol. […] The amplified RT-PCR products were analyzed by 1% agarose gel electrophoresis, visualized by ethidium bromide staining and photographed under UV illumination.
Immunodetection of PARP-DBD Flag-fusion protein in human prostate carcinoma cells was performed as previously described (Soldatenkov et al., Cancer J Sci. Am., 3: 13-20 (1997)). […] Insoluble material was removed by centrifugation at […] for 30 min at 16,000×g and protein concentrations were determined using the “Micro BCA protein assay” (Pierce). […] Signals were detected using the enhanced chemiluminescence system (Amersham). […]

LNCaP cells = test: Annexin V cell death assay (flow cytometry); type: cell-based, human; settings: parental LNCaP cells and un-induced LNCaP-DBD sublines; etoposide 10 μM; 24 h
Experimental: Surface expression of phosphadtidyl serine was determined by Annexin V staining (Trevigen) according to the manufacturer's recommendations. Briefly, LNCaP cells (2-5×10^5) were harvested, washed in PBS and exposed to FITC-labeled Annexin V. To exclude staining of phosphadtidyl serine on the inner surface of the cell membrane, indicative of cytoplasmic membrane disintegration, cells were counterstained with propidium iodite. FITC-Annexin V and propidium iodite staining was determined using a FACStar Plus flow cytometer (Becton Dickinson FACS System). Apoptotic cells were defined as FITC positive and PI negative.

plasmid DNA fragments = test: Atomic force microscopy of PARP / PARP-DBD interaction with DNA; type: binding
Experimental: DNA samples or PARP-DNA binding reaction product in Mg^2+containing buffer were deposited on an […] mica surface, allowed to adsorb for 1 min, rinsed with deionized water, and dried in a gentle nitrogen flow. The AFM images were obtained using a NanoScope IIIa instrument equipped with E-scanner (Digital Instruments, Santa Barbara, Calif.) operating in a tapping mode in air as described (Smulson et al., Cancer Res., 58: 3495-3498 (1998)). The tapping frequency of the 125 μm silicon cantilever was 300-400 KHz and the nominal scanning rate was set at 1-2 Hz. No less than 150 uncomplexed DNA molecules and 100 of PARP-DNA complexes were analyzed in each experiment.

Q: With `C[C@]1(O)CC[C@H]2[C@@H]3CCC4=CC(=O)CCC4=C3C=C[C@@]21C` [R1881] as the compound, how does the “stimulation of PARP-DBD expression at levels of mRNA and protein” value [1] read?
A: The value was “dose-dependent stimulation”.

Q: How did the “annexin V-binding activity (early apoptotic changes)” value (LNCaP cells) turn out when `COc1cc([C@@H]2c3cc4c(cc3[C@@H](O[C@@H]3O[C@@H]5CO[C@@H](C)O[C@H]5[C@H](O)[C@H]3O)[C@H]3COC(=O)[C@H]23)OCO4)cc(OC)c1O` [etoposide] was run?
A: The value was “only modest increase”.

Q: Which “binding to DNA fragments (AFM)” value (plasmid DNA fragments; absence of NAD+) does the source give for “Poly(ADP-ribose) polymerase [recombinant full length PARP]” here?
A: Its value is “bound plasmid DNA fragments and linked them into chainlike structures”.

Q: What about the “binding to DNA fragments (AFM)” value (plasmid DNA fragments; presence of NAD+) of the same compound?
A: Its value is “dissociated from the DNA fragments”.

Reference: patent publication US20040067904A1, “Gene therapy for prostate cancer: sensibilization of cells to dna damaging drugs and radiation” (priority 2003, published 2004)
